According to patent US11117874B2, “Certain (2S)-N-[(1S)-1-cyano-2-phenylethyl]-1,4-oxazepane-2-carboxamides as dipeptidyl peptidase 1 inhibitors” (AstraZeneca AB, priority 2014, dated 2021):

assay: Test B: In-Vitro Competitive Aortic Tissue Binding Assay; conditions: 100 μM compound pre-incubated overnight at 37° C. with rat aortic homogenate, competition with 100 μM [14C]4-amino-N-[(1S)-1-cyano-2-(4′-cyanobiphenyl-4-yl)ethyl]tetrahydro-2H-pyran-4-carboxamide; four categories
Procedure: To assist the design of DPP1 inhibitors with a decreased risk of binding to elastin rich tissues, such as the aorta, the in-vitro competitive aortic binding assay disclosed below (Test B) was developed to facilitate the selection process.
Test B: In-Vitro Competitive Aortic Tissue Binding Assay
Aortic homogenate was prepared from the thoracic aortae of Han Wistar rats. Freshly isolated to thoracic aortae were frozen, and later thawed and stripped of non-elastic material.
Homogenate concentration was adjusted to 30 mg/mL in Puck's saline, and aliquots were stored at −80° C. until use. Positive and negative control compounds and test compounds were made up to 100 mM in DMSO, and added to 1 mL aliquots of aortic homogenate in Puck's saline for a final concentration of 100 μM. Homogenate samples were pre-incubated with test compounds at 37° C., rotating, overnight. [^14C]4-Amino-N-[(1S)-1-cyano-2-(4′-cyanobiphenyl-4-yl)ethyl]tetrahydro-2H-pyran-4-carboxamide was then added to all samples to a final concentration of 100 μM, and samples were incubated at 37° C., rotating, for a further 2 h. Protein was precipitated from each sample by the addition of 10 mL acetone, pre-chilled to −20° C. Samples were left overnight at −20° C. to allow complete precipitation. Precipitate was pelleted by centrifugation at 4,500×g at 4° C. for 20 min, an aliquot of supernatant was removed for analysis, and the remainder of the supernatant discarded. Precipitate was washed by resuspension in 10 mL 80% methanol in distilled water, and re-pelleted by centrifugation at 4,500×g at 4° C. for 20 min. […] After final wash, precipitate was air-dried, and dissolved overnight in 1 mL NCSII Tissue Solubiliser. 1 mL aliquots of supernatants were added to 5 mL Ultima Gold scintillation fluid (Perkin Elmer, Mass., U.S.A.), and 1 mL solubilised pellets were added to 5 mL Hionic-Fluor scintillation fluid (Perkin Elmer, Mass., U.S.A.). Radioactivity of samples was determined on a Beckman LS6500 multipurpose scintillation counter (Beckman Coulter, Ind., U.S.A.). […] Duplicate samples were tested for each compound on each experimental occasion, and at least two experiments were run for each test compound. […] 1-way ANOVA and to Bonferroni's multiple comparison tests were performed to calculate significance of differences from vehicle control.

Row | SMILES | Aortic Tissue Binding
1 | Cn1c(=O)oc2ccc(-c3ccc(C[C@@H](C#N)NC(=O)[C@@H]4CNCCCO4)cc3)cc21 [Example 2, (2S)—N-{(1S)-1-Cyano-2-[4-(3-methyl-2-oxo-2,3-dihydro-1,3-benzoxazol-5-yl)phenyl]ethyl}-1,4-oxazepane-2-carboxamide] | No binder
2 | N#Cc1ccc(-c2ccc(C[C@@H](C#N)NC(=O)[C@@H]3CCCCN3)cc2)cc1 [WO2009/074829 (Example 24)] | Binder
3 | Cn1c(=O)oc2ccc(-c3ccc(C[C@@H](C#N)NC(=O)[C@@H]4CCCCN4)cc3)cc21 [WO2009/074829 (Example 96)] | Medium binder
4 | N#Cc1ccc(-c2ccc(C[C@@H](C#N)NC(=O)C3(N)CCOCC3)cc2)cc1 [WO2010/128324 (Ex. 3), 4-amino-N-[(1S)-1-cyano-2-(4′-cyanobiphenyl-4-yl)ethyl]tetrahydro-2H-pyran-4-carboxamide] | Strong binder (reference)
5 | Cn1c(=O)oc2ccc(-c3ccc(C[C@@H](C#N)NC(=O)C4(N)CCOCC4)cc3)cc21 [WO2010/128324 (Example 17)] | Strong binder

assay: not given; conditions: described in literature (Schmidt et al. 1984); cited from earlier work

Row | SMILES | retention in the aorta in QWBA studies
6 | CC(c1ccc(Cl)c(Cl)c1)N1N=C(N)CC1=O (stereo not drawn) [muzolimine] | retained selectively in the aorta
